Test system: U87MG cells
Assay: Cellular assay, inhibition of 2-HG production in U87MG cells
Format: cell-based
Settings: Homo sapiens, U-87 MG, 48 h
Summary of the method: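 HT1080 or U87MG cells (U87MG kept with 500 ug/mL G418) seeded at 5000 cells/well and treated with compound at 0.2% final DMSO. Incubated 48 h at 37 °C. 2-HG inhibition determined by LC-MS. Viability read by CellTiter-Glo luminescence at 72 h post-dose.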

Structure (SMILES) | IC50
CCOC(=O)CN1C[C@@H](C(=O)N(c2cccc(F)c2)C(C(=O)NC2CC(F)(F)C2)c2ccccc2Cl)N(c2nccc(C#N)n2)C1=O (stereo partly drawn) [Compound 111, Ethyl 2-((4S)-4-((1-(2-chlorophenyl)-2-((3,3-difluorocyclobutyl)amino)-2-oxoethyl)(3-fluorophenyl)carbamoyl)-3-(4-cyanopyrimidin-2-yl)-2-oxoimidazolidin-1-yl)acetate] | < 100 nM
N#Cc1ccnc(N2C(=O)CC[C@H]2C(=O)N(c2cncc(F)c2)[C@H](C(=O)NC2CC(F)(F)C2)c2ccccc2)c1 [Compound 147, (S)-1-(4-Cyanopyridin-2-yl)-N—((S)-2-((3,3-difluorocyclobutyl)amino)-2-oxo-1-phenylethyl)-N-(5-fluoropyridin-3-yl)-5-oxopyrrolidine-2-carboxamide] | < 100 nM
COc1cccc(N(C(=O)[C@@H]2CCC(=O)N2c2nccc(C#N)n2)[C@H](C(=O)NC2CC(F)(F)C2)c2ccccc2Cl)c1 [Compound 164, (S)—N—((S)-1-(2-Chlorophenyl)-2-(3,3-difluorocyclobutyl-amino)-2-oxoethyl)-1-(4-cyanopyrimidin-2-yl)-N-(3-methoxyphenyl)-5-oxopyrrolidine-2-carboxamide] | < 100 nM
O=C(NC1CC(F)(F)C1)[C@H](c1ccccc1Cl)N(C(=O)[C@@H]1CCC(=O)N1c1ncccn1)c1cc(F)cc(F)c1 [Compound 70, (S)—N—((S)-1-(2-Chlorophenyl)-2-((3,3-difluorocyclobutyl)amino)-2-oxoethyl)-N-(3,5-difluoro-phenyl)-5-oxo-1-(pyrimidin-2-yl)pyrrolidine-2-carboxamide] | < 100 nM
N#Cc1ccnc(N2C(=O)OC[C@H]2C(=O)N(c2cncc(F)c2)[C@H](C(=O)NC2CCC(F)(F)CC2)c2ccccc2Cl)c1 [Compound 132, (S)—N—((S)-1-(2-Chlorophenyl)-2-((4,4-difluorocyclohexyl)amino)-2-oxoethyl)-3-(4-cyanopyridin-2-yl)-N-(5-fluoropyridin-3-yl)-2-oxooxazolidine-4-carboxamide] | < 100 nM
N#Cc1cccc(N(C(=O)[C@@H]2CCC(=O)N2c2nccc(C#N)n2)[C@H](C(=O)NC2CC(F)(F)C2)c2ccccc2Cl)c1 [Compound 167, (S)—N—((S)-1-(2-Chlorophenyl)-2-((3,3-difluorocyclobutyl)amino)-2-oxoethyl)-N-(3-cyanophenyl)-1-(4-cyanopyrimidin-2-yl)-5-oxopyrrolidine-2-carboxamide] | < 100 nM
N#Cc1ccnc(N2C(=O)CC[C@H]2C(=O)N(c2cccc(F)c2)[C@H](C(=O)NC2CCC(F)(F)CC2)c2ccccc2Cl)n1 [Compound 85, (S)—N—((S)-1-(2-Chlorophenyl)-2-((4,4-difluorocyclohexyl)amino)-2-oxoethyl)-1-(4-cyanopyrimidin-2-yl)-N-(3-fluorophenyl)-5-oxopyrrolidine-2-carboxamide] | < 100 nM
O=C(NC1CC(F)(F)C1)[C@H](c1ccccc1Cl)N(C(=O)[C@@H]1CCC(=O)N1c1ncccn1)c1cccc(F)c1 [Compound 1] | 100 to 500 nM
N#Cc1ccnc(N2C(=O)CC[C@H]2C(=O)N(c2cccc3[nH]cnc23)C(C(=O)NC2CCC(F)(F)CC2)c2ccccc2Cl)c1 (stereo partly drawn) [Compound 141, (2S)—N-(1H-benzo[d]imidazol-7-yl)-N-(1-(2-chlorophenyl)-2-((4,4-difluorocyclohexyl)amino)-2-oxoethyl)-1-(4-cyanopyridin-2-yl)-5-oxopyrrolidine-2-carboxamide] | < 100 nM
N#Cc1ccnc(N2C(=O)[C@H](O)C[C@H]2C(=O)N(c2cc(F)cc(F)c2)[C@@H](C(=O)NC2CCC(F)(F)CC2)c2ccccc2Cl)c1 [Compound 124, (2S,4R)—N—((R)-1-(2-Chlorophenyl)-2-(4,4-difluorocyclohexylamino)-2-oxoethyl)-1-(4-cyanopyridin-2-yl)-N-(3,5-difluorophenyl)-4-hydroxy-5-oxopyrrolidine-2-carboxamide] | < 100 nM
N#Cc1ccnc(N2C(=O)OCC[C@H]2C(=O)N(c2cc(F)cc(F)c2)[C@H](C(=O)NC2CCC(F)(F)CC2)c2ccccc2Cl)c1 [Compound 139, (S)—N—((S)-1-(2-Chlorophenyl)-2-((4,4-difluorocyclohexyl)amino)-2-oxoethyl)-3-(4-cyanopyridin-2-yl)-N-(3,5-difluorophenyl)-2-oxo-1,3-oxazinane-4-carboxamide] | < 100 nM
N#Cc1ccnc(N2C(=O)OCC[C@H]2C(=O)N(c2cc(F)cc(F)c2)[C@H](C(=O)NC2CCC(F)(F)CC2)c2ccccc2Cl)n1 [Compound 144, (S)—N—((S)-1-(2-Chlorophenyl)-2-((4,4-difluorocyclohexyl)amino)-2-oxoethyl)-3-(4-cyanopyrimidin-2-yl)-N-(3,5-difluorophenyl)-2-oxo-1,3-oxazinane-4-carboxamide] | < 100 nM
O=C(NC1CC(F)(F)C1)[C@H](c1ccccc1Cl)N(C(=O)[C@@H]1CCC(=O)N1c1cscn1)c1cccc(F)c1 [Compound 43, (S)—N—((S)-1-(2-Chlorophenyl)-2-(3,3-difluorocyclobutylamino)-2-oxoethyl)-N-(3-fluorophenyl)-5-oxo-1-(thiazol-4-yl)pyrrolidine-2-carboxamide] | < 100 nM
CC(C)(O)c1cc(F)cc(N(C(=O)[C@@H]2CCOC(=O)N2c2cc(C#N)ccn2)[C@H](C(=O)NC2CC(F)(F)C2)c2ccccc2Cl)c1 [Compound 146, (S)—N—((S)-1-(2-Chlorophenyl)-2-(3,3-difluorocyclobutylamino)-2-oxoethyl)-3-(4-cyanopyridin-2-yl)-N-(3-fluoro-5-(2-hydroxypropan-2-yl)phenyl)-2-oxo-1,3-oxazinane-4-carboxamide] | < 100 nM

Continued, values first:

IC50 | Structure (SMILES)
< 100 nM | N#Cc1ccnc(N2C(=O)NC[C@H]2C(=O)N(c2cccc(F)c2)[C@H](C(=O)NC2CC(F)(F)C2)c2ccccc2Cl)c1 [Compound 80, (S)—N—((S)-1-(2-chlorophenyl)-2-(3,3-difluorocyclobutylamino)-2-oxoethyl)-3-(4-cyanopyridin-2-yl)-N-(3-fluorophenyl)-2-oxoimidazolidine-4-carboxamide]
< 100 nM | CN1C[C@@H](C(=O)N(c2cccc(F)c2)C(C(=O)NC2CC(F)(F)C2)c2ccccc2Cl)N(c2cc(C#N)ccn2)C1=O (stereo partly drawn) [Compound 79, (4S)—N-(1-(2-chlorophenyl)-2-((3,3-difluorocyclobutyl)amino)-2-oxoethyl)-3-(4-cyanopyridin-2-yl)-N-(3-fluorophenyl)-1-methyl-2-oxoimidazolidine-4-carboxamide]
< 100 nM | C[S@+]([O-])c1cc(F)cc(N(C(=O)[C@@H]2CCC(=O)N2c2cc(C#N)ccn2)[C@H](C(=O)NC2CC(F)(F)C2)c2ccccc2Cl)c1 [Compound 190, (S)—N—((S)-1-(2-Chlorophenyl)-2-(3,3-difluorocyclobutylamino)-2-oxoethyl)-1-(4-cyanopyridin-2-yl)-N-(3-fluoro-5-((S)-methylsulfinyl)phenyl)-5-oxopyrrolidine-2-carboxamide]
< 100 nM | N#Cc1ccnc(N2C(=O)CC[C@H]2C(=O)N(c2cccc(F)c2F)[C@H](C(=O)NC2CC(F)(F)C2)c2ccccc2Cl)c1 [Compound 188, (S)—N—((S)-1-(2-Chlorophenyl)-2-((3,3-difluorocyclobutyl)amino)-2-oxoethyl)-1-(4-cyanopyridin-2-yl)-N-(2,3-difluorophenyl)-5-oxopyrrolidine-2-carboxamide]
100 to 500 nM | N#Cc1ccnc(N2C(=O)[C@@H](O)C[C@H]2C(=O)N(c2cccc(F)c2)[C@H](C(=O)NC2CC(F)(F)C2)c2ccccc2Cl)n1 [Compound 119, (2S,4S)—N—((S)-1-(2-Chlorophenyl)-2-(3,3-difluorocyclobutylamino)-2-oxoethyl)-1-(4-cyanopyrimidin-2-yl)-N-(3-fluorophenyl)-4-hydroxy-5-oxopyrrolidine-2-carboxamide]
< 100 nM | CC(C)(C)OC(=O)N1CC(=O)N(c2cc(C#N)ccn2)[C@H](C(=O)N(c2cccc(F)c2)[C@H](C(=O)NC2CC(F)(F)C2)c2ccccc2Cl)C1 [Compound 89, (3S)-tert-Butyl 3-((1-(2-chlorophenyl)-2-((3,3-difluorocyclobutyl)amino)-2-oxoethyl)(3-fluorophenyl)carbamoyl)-4-(4-cyanopyridin-2-yl)-5-oxopiperazine-1-carboxylate]
100 to 500 nM | N#Cc1ccnc(N2C(=O)CC[C@H]2C(=O)N(c2cccc(S(N)(=O)=O)c2)[C@H](C(=O)NC2CC(F)(F)C2)c2ccccc2Cl)c1 [Compound 84, (S)—N—((S)-1-(2-Chlorophenyl)-2-(3,3-difluorocyclobutylamino)-2-oxoethyl)-1-(4-cyanopyridin-2-yl)-5-oxo-N-(3-sulfamoylphenyl)pyrrolidine-2-carboxamide]
< 100 nM | N#Cc1ccnc(N2C(=O)CC[C@H]2C(=O)N(c2cc(F)cc(S(N)(=O)=O)c2)[C@H](C(=O)NC2CC(F)(F)C2)c2ccccc2Cl)c1 [Compound 158, (2S)—N-(1-(2-chlorophenyl)-2-(3,3-difluorocyclobutylamino)-2-oxo-ethyl)-1-(4-cyanopyridin-2-yl)-N-(3-fluoro-5-sulfamoylphenyl)-5-oxopyrrolidine-2-carboxamide]
< 100 nM | N#Cc1ccnc(N2C(=O)OC[C@H]2C(=O)N(c2cncc(F)c2)[C@H](C(=O)NC2CC(F)(F)C2)c2ccccc2Cl)c1 [Compound 135, (S)—N—((S)-1-(2-Chlorophenyl)-2-((3,3-difluorocyclobutyl)amino)-2-oxoethyl)-3-(4-cyanopyridin-2-yl)-N-(5-fluoropyridin-3-yl)-2-oxooxazolidine-4-carboxamide]
< 100 nM | N#Cc1ccnc(N2C(=O)CC[C@H]2C(=O)N(c2cccc3[nH]ncc23)C(C(=O)NC2CC(F)(F)C2)c2ccccc2Cl)c1 (stereo partly drawn) [Compound 152, (2S)—N-(1-(2-Chlorophenyl)-2-((3,3-difluorocyclobutyl)amino)-2-oxoethyl)-1-(4-cyanopyridin-2-yl)-N-(1H-indazol-4-yl)-5-oxopyrrolidine-2-carboxamide]
